In patent US12709745B2 (priority 2012, dated 2026):

Legend:
SOD1 = SOD1 (Homo sapiens, UniProt P00441); type: biochemical
[1] = target: recombinant human WT SOD1 (Homo sapiens, UniProt P00441); type: biochemical
WT DJ-1 = WT DJ-1 (Homo sapiens, UniProt Q99497); type: biochemical
DJ-1 [2] = target: T1, DJ-1 (Homo sapiens, UniProt Q99497); type: binding
[3] = in vivo; cited from earlier work
DJ-1 [4] = target: T1, DJ-1; type: biochemical

Chain of recombinant human WT SOD1 (P00441 whole entry): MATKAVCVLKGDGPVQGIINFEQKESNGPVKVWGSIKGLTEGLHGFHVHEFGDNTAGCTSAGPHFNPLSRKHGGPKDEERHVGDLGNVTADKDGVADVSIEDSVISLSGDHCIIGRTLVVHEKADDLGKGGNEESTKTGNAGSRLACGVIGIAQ
T1 sequence (Q99497 whole entry): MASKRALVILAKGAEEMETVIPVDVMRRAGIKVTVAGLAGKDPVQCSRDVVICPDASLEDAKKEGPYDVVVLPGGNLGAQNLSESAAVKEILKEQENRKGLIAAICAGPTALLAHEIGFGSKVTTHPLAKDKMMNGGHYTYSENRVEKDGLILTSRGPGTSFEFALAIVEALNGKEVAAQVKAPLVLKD
Chain of WT DJ-1 (Q99497 whole entry): as above
Chain of SOD1 (P00441 whole entry): as the sequence (P00441 whole entry) above

Compound	covalent dimerization of SOD1 [1]	covalent dimerization of DJ-1 (WT DJ-1)	denaturation temperature of DJ-1 (DJ-1 [2])	other results
O=C1C=CC(=O)N1CCSSCCN1C(=O)C=CC1=O [DTME, dithio-bismaleimidocthane]	–	–	–	cross-linking of SOD1 monomers (SOD1): able to cross-link SOD1 monomers
OCC1(CO)CSSC1 [1,2-dithiolane-4,4-dimethanol]	capable of covalently dimerizing SOD1	–	–	–
NC(=O)NN=C1CSSC1 [NSC72268]	–	specific covalent dimerizer of DJ-1	increase the measured denaturation temperature of DJ-1	–
CC(C)C[C@H](NC(=O)[C@H](Cc1ccccc1)NC(=O)c1cnccn1)B(O)O [bortezomib]	–	–	–	LD100 [3]: < 0.25 mg/kg
[O-][S+]1CCCCS1 (stereo not shown) [NSC56224, 1-oxo-1,2-dithiane]	capable of covalently dimerizing SOD1	covalent dimerizer of DJ-1	increase the measured denaturation temperature of DJ-1	extent of cross-linking of SOD1 monomers [1]: able to cross-link the majority of SOD1 monomers in the sample; site of covalent linkage in DJ-1 dimer (DJ-1 [4]): covalently linked DJ-1 dimers at Cys53
